Source: US20170150719A1, “FUNGICIDAL PYRAZOLES AND THEIR MIXTURES” (E I DU PONT DE NEMOURS AND COMPANY, priority 2010, published 2017)
Marks after values point to notes of the source that are not given here.

What was measured:
[1] = tested on: Puccinia recondita f. sp. tritici; assay: Test G: wheat leaf rust, spray after inoculation (curative) on wheat seedlings, visual disease rating; format: in vivo; details: 100 = 100% disease control; for Test G rating (% disease control): spray after inoculation, rating without asterisk
Source text: (§1) A hyphen (-) indicates no test results.

Botrytis cinerea = assay: Test A: tomato Botrytis, preventive spray on tomato seedlings, visual disease rating; details: for Test A rating (disease control): 0 = no disease control relative to the controls; for pest or weed control at 40 µg/mL: Botrytis cinerea, in Solanum lycopersicum, read-out: Test A rating (% disease control), marked *, tomato Botrytis, preventive spray, rating marked with asterisk (*), other test suspension concentration than unmarked ratings
Septoria tritici = assay: Test F: wheat leaf blotch, preventive spray on wheat seedlings, visual disease rating; format: in vivo; set-up: Test F rating (disease control), value marked *: concentration or dose not given beside the values; pest or weed control: dose or concentration left out as unconfirmed; details: for Test F rating (disease control), value marked * / pest or weed control: rating marked with asterisk (*); for Test F rating (disease control), value marked *: other test condition, not explained in the text shown; for Test F rating (% disease control) / pest or weed control: preventive spray; for Test F rating (% disease control): rating without asterisk; for pest or weed control: other test suspension concentration than unmarked ratings
Source text: as §1

[2] = tested on: Puccinia recondita f. sp. tritici; assay: Test H: wheat leaf rust, preventive spray on wheat seedlings, visual disease rating; details: for Test H rating (disease control) / Test H rating (% disease control): wheat leaf rust; for Test H rating (disease control): sprayed the day before inoculation; for Test H rating (% disease control): preventive spray, rating without asterisk; for pest or weed control at 40 µg/mL: read-out: Test H rating (% disease control), marked *, wheat leaf rust, preventive spray, rating marked with asterisk (*), other test suspension concentration than unmarked ratings
[3] = tested on: Blumeria graminis f. sp. tritici; assay: Test I: wheat powdery mildew, preventive spray on wheat seedlings, visual disease rating; details: for Test I rating (% disease control): rating without asterisk
Septoria nodorum = assay: Test E: Septoria glume blotch, preventive spray on wheat seedlings, visual disease rating; details: for Test E rating (disease control): Septoria glume blotch; for Test E rating (% disease control) / Test E rating (% disease control), marked *: Septoria glume blotch on wheat, preventive spray; for Test E rating (% disease control): rating without asterisk; for Test E rating (% disease control), marked *: rating marked with asterisk (*), other test suspension concentration than unmarked ratings
Method: General protocol for preparing test suspensions for Tests A-I: the test compounds were first dissolved in acetone in an amount equal to 3% of the final volume and then suspended at the desired concentration (in ppm) in acetone and purified water (50/50 mix by volume) containing 250 ppm of the surfactant Trem® 014 (polyhydric alcohol esters). The resulting test suspensions were then used in Tests A-I. Each test was conducted in triplicate, and the results were averaged. Spraying a 200 ppm test suspension to the point of run-off on the test plants was the equivalent of a rate of about 800 g/ha. Unless otherwise indicated, the rating values indicate a 200 ppm test suspension was used. (An asterisk “*” next to the rating value indicates a 40 ppm test suspension was used.)
The test suspension was sprayed to the point of run-off on wheat seedlings. The following day the seedlings were inoculated with a spore suspension of Septoria nodorum (the causal agent of Septoria glume blotch) and incubated in a saturated atmosphere at 24° C. for 48 h, and then moved to a growth chamber at 20° C. for 9 days, after which time visual disease ratings were made.

Alternaria solani = assay: Test B: tomato early blight, preventive spray on tomato seedlings, visual disease rating; details: for Test B rating (disease control) / Test B rating (% disease control): tomato early blight, 100 = 100% disease control; for Test B rating (disease control): 0 = no disease control relative to the controls; for Test B rating (% disease control): preventive spray, rating without asterisk
[4] = sprayed after inoculation, 0 = no disease control
[5] = tomato Botrytis, 100 = 100% disease control
[6] = 100 = 100% disease control, 0 = no disease control
[7] = wheat powdery mildew, 100 = 100% disease control, 0 = no disease control relative to the controls
[8] = 100 = 100% disease control, 0 = no disease control relative to the controls
[9] = wheat powdery mildew, preventive spray, 100 = 100% disease control

SMILES | Test A rating (disease control) (Botrytis cinerea; [5]) | Test H rating (disease control) [2, 6] | Test I rating (disease control) [3, 7] | Test E rating (disease control) (Septoria nodorum; [8]) | Test B rating (disease control) (Alternaria solani) | Test G rating (% disease control) [1] | Test H rating (% disease control) ([2]; 100 = 100% disease control) | Test I rating (% disease control) [3, 9] | Test E rating (% disease control) (Septoria nodorum; 100 = 100% disease control) | Test B rating (% disease control) (Alternaria solani) | also measured
Cc1nn(C)c(Oc2ccc(C#N)cc2Cl)c1-c1ccc(F)cc1Br [compound 80] | 98% | 99% | 99% | 60% | 0% | – | – | – | – | – | Test G rating (disease control) [1, 4]: 9%; Test F rating (disease control), value marked * (Septoria tritici): 100* %
Cc1nn(C)c(C(O)c2ccc(F)cc2Br)c1-c1ccc(F)cc1Cl (stereo not drawn) [Compound 153, α-(2-bromo-4-fluorophenyl)-4-(2-chloro-4-fluorophenyl)-1,3-dimethyl-1H-pyrazole-5-methanol] | – | – | – | – | – | – | – | – | – | – | pest or weed control at 200 µg/mL [1, 4]: 0%; pest or weed control at 200 µg/mL (Septoria tritici; Zymoseptoria tritici, 100 = 100% disease control, 0 = no disease control relative to the controls): 100%; pest or weed control at 200 µg/mL ([2]; read-out: Test H rating (disease control), wheat leaf rust, sprayed the day before inoculation, 100 = 100% disease control, 0 = no disease control): 96%; pest or weed control at 200 µg/mL ([3]; Blumeria graminis, in Triticum aestivum, read-out: Test I rating (disease control), wheat powdery mildew, 100 = 100% disease control, 0 = no disease control relative to the controls): 0%; pest or weed control at 200 µg/mL (Septoria nodorum; Parastagonospora nodorum, in Triticum aestivum, read-out: Test E rating (disease control), Septoria glume blotch, 100 = 100% disease control, 0 = no disease control relative to the controls): 0%; pest or weed control at 200 µg/mL (Alternaria solani; Alternaria solani, in Solanum lycopersicum, read-out: Test B rating (disease control)): 0%
COc1ccc(Oc2c(-c3ccc(F)cc3Cl)c(C)nn2C)c(F)c1 [compound 5] | 98% | 100% | 99% | 97% | 100% | – | – | – | – | – | Test F rating (disease control), value marked * (Septoria tritici): 97* %
CCOc1ccc(-c2c(C)nn(C)c2Nc2ccc(F)cc2F)c(F)c1 [Compound 193] | – | – | – | – | – | 0% | 27% | 92% | 0% | 58% | Test F rating (% disease control) (Septoria tritici; 100 = 100% disease control): 100%
Cc1nn(C)c(C(O)c2ccc(Cl)cc2F)c1-c1ccc(F)cc1Cl (racemic) [compound 177] | 99% | 0% | 48% | 0% | 0% | – | – | – | – | – | Test G rating (disease control) [1, 4]: 0%
Cc1nn(C)c(C(O)c2ccc(C#N)cc2F)c1-c1ccc(F)cc1Cl (racemic) [compound 179] | – | – | – | – | – | 9% | 99% | 0% | 0% | 16% | Test A rating (% disease control) (Botrytis cinerea; tomato Botrytis, preventive spray, 100 = 100% disease control, 0 = no control relative to controls, rating without asterisk): 96%
Cc1nn(C)c(C(O)c2c(F)cc(F)cc2F)c1-c1ccc(F)cc1Cl (racemic) [compound 178] | 100% | 100% | 74% | 0% | 33% | – | – | – | – | – | Test G rating (disease control) [1, 4]: 98%
COc1ccc(-c2c(C)nn(C)c2Nc2c(Cl)cc(F)cc2Cl)c(F)c1 [compound 194] | – | – | – | – | – | 0% | 95% | 63% | 87% | 93% | Test F rating (% disease control) (Septoria tritici; 100 = 100% disease control): 100%
COc1ccc(-c2c(C)nn(C)c2Nc2c(C)cccc2Br)c(Cl)c1 [Compound 263, N-(2-bromo-6-methylphenyl)-4-(2-chloro-4-methoxyphenyl)-1,3-dimethyl-1H-pyrazol-5-amine] | – | – | – | – | – | – | – | – | – | – | pest or weed control at 40 µg/mL (Botrytis cinerea): 99%; pest or weed control (Septoria tritici; Zymoseptoria tritici): 100%; pest or weed control at 40 µg/mL [2]: 79%; Test I rating (% disease control), marked * ([3]; wheat powdery mildew, preventive spray, rating marked with asterisk (*), other test suspension concentration than unmarked ratings): 13* %; Test E rating (% disease control), marked * (Septoria nodorum): 0* %
COc1ccc(-c2c(C)nn(C)c2Nc2c(C)cccc2Br)c(F)c1 [Compound 258, N-(2-bromo-6-methylphenyl)-4-(2-fluoro-4-methoxyphenyl)-1,3-dimethyl-1H-pyrazol-5-amine] | – | – | – | – | – | – | – | – | – | – | pest or weed control at 40 µg/mL (Botrytis cinerea): 100%; pest or weed control (Septoria tritici; Zymoseptoria tritici): 100%; pest or weed control at 40 µg/mL [2]: 9%; pest or weed control at 40 µg/mL ([3]; Blumeria graminis, in Triticum aestivum, read-out: Test I rating (% disease control), marked *, wheat powdery mildew, preventive spray, rating marked with asterisk (*), other test suspension concentration than unmarked ratings): 0%; Test E rating (% disease control), marked * (Septoria nodorum): 0* %
COc1ccc(-c2c(C)nn(C)c2C(O)c2c(F)cc(Cl)cc2F)c(Cl)c1 (racemic) [compound 224] | – | – | – | – | – | 54% | 100% | 94% | 89% | 100% | Test F rating (% disease control) (Septoria tritici; 100 = 100% disease control): 100%
